Test results taken from US20110065760A1, “COMPOUNDS FOR THE INHIBITION OF ROTAMASES AND USE THEREOF” (Jerini AG, priority 2002, published 2011).
Like-named read-outs stand apart in the source and are kept apart here.

Tests used:
[1] = molecular target: hCyp18 (Homo sapiens, UniProt P62937); assay: protease-coupled PPIase assay, hCyp18; assay type: biochemical; conditions: 10 nM hCyp18, substrate Suc-Ala-Phe-Pro-Phe-pNA, chymotrypsin, pH 7.8, 6° C.; read-out: IC50 class, Target T-3 (hCyp18)
[2] = molecular target: hPin1 (Homo sapiens, UniProt Q13526); assay: protease-coupled PPIase assay, hPin1; assay type: biochemical; conditions: 6 nM hPin1, substrate Ac-Ala-Ala-Ser(PO3H2)-Pro-Arg-pNA, trypsin, pH 7.8, 6° C.; read-out: IC50 class, Target T-1 (hPin1)
Chain of hPin1 (Q13526 whole entry): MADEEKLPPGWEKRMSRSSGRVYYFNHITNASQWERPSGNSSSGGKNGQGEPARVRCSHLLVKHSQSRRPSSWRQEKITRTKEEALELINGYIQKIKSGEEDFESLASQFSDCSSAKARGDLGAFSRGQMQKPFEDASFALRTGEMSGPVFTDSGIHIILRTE

[3] = molecular target: LpCyp18 (Legionella pneumophila, UniProt Q5ZRZ4); assay: biochemical; conditions: IC50 class, Target T-4 (LpCyp18)
Chain of LpCyp18 (Q5ZRZ4 1-164): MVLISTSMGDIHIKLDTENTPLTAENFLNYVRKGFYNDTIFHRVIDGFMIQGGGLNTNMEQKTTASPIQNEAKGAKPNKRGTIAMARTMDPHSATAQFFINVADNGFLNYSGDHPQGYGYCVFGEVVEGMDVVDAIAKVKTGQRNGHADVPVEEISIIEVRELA

[4] = molecular target: hFKBP12 (Homo sapiens, UniProt P62942); assay: protease-coupled PPIase assay, hFKBP12; assay type: biochemical; conditions: 20 nM hFKBP12, substrate Suc-Ala-Phe-Pro-Phe-pNA, chymotrypsin, pH 7.8, 6° C.; read-out: IC50 class, Target T-2 (hFKBP12)
Chain of hFKBP12 (P62942 whole entry): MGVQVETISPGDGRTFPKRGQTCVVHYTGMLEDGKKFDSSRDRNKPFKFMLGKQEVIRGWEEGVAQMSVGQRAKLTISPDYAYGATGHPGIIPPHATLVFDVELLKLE

[5] = molecular target: EcParvulin (Escherichia coli, UniProt P0A9L5); assay: protease-coupled PPIase assay, EcParvulin; assay type: biochemical
Chain of EcParvulin (P0A9L5 whole entry): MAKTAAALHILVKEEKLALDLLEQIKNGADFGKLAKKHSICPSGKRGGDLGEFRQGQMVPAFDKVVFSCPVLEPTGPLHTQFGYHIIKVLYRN

[6] = molecular target: T1, Papain (Carica papaya, UniProt P00784); assay: papain assay; assay type: biochemical; conditions: 16 μg/ml papain, 2 mM Bz-DL-Arg-pNA, pH 6.5, 30° C., 30 min incubation; read-out: IC50 class, Target T-6 (Papain)
T1 sequence (P00784 134-345): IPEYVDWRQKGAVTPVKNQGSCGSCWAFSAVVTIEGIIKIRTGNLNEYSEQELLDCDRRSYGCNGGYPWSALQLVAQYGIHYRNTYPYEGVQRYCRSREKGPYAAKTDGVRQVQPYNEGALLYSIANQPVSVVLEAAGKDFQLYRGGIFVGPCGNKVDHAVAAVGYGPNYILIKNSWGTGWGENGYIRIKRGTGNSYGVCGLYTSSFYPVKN
Method: In order to investigate the impact of some of the inventive compounds on the activity of key proteases the following assay was performed: Protease activities were measured spectrophotometrically at 30° C. according to Schomburg and Salzmann (Schomburg, B.; Salzmann M. GBF: Enzyme Handbook. Springer Verlag, Berlin Heidelberg, 1991) and Bergmeyer et al. (Bergmeyer, H. U.; Bergmeyer, J.; Graβl, M. Methods of Enzymatic Analysis, Vol. V Enzymes 3: Peptides, Proteinases and Their Inhibitors. pp 55-371, VCH, Weinheim, 1988). The release of 4-nitroaniline was determined at 390 nm with a Spectramax Plus UV/Vis spectrophotometer (Molecular Devices). The cathepsin B assay was performed in a reaction mixture containing 0.2 μg/ml cathepsin B, 2 mM Z-Arg-Arg-pNA in 88 mM KH2PO4, 12 mM Na2HPO4, 1.33 mM EDTA, 0.03% Brij 35 (pH 5.8). The trypsin assay was carried out in a reaction mixture containing 0.1 μg/ml trypsin and 120 μM Ac-Ala-Ala-Ser(PO3H2)-Pro-Arg-pNA in 35 mM HEPES (pH 7.8) and the papain assay in a mixture consisting of 16 μg/ml papain and 2 mM Bz-DL-Arg-pNA in 10 mM Na2HPO4, 2 mM L-Cys, 5 mM EDTA (pH 6.5). In general, reactions were started by addition of peptide substrate after a 30 min incubation of 1-100 μM effector with given concentrations of enzyme.

[7] = WST-1 cytotoxicity assay, HL-60; assay type: cell-based; conditions: human, HL-60 cells (acute myeloid leukemia); WST-1, 48 h incubation; read-out: EC50 class, cytotoxic effect, CL-1 (HL-60)
Method: For this cytotoxic evaluation of the compounds the commercial available WST-1 assay (Roche) was used according to the manufacturer's instructions. The assay is based on the cleavage of the tetrazolium salt WST-1 by mitochondrial dehydrogenases found in viable cells. In general compounds were added to cells cultured in 96-well plates at 37° C. After 48 h of incubation 10 μl of WST-1 solution was added. The formazan dye was analyzed with an ELISA plate reader at (450 vs. 620) nm. CL-1: human acute myeloid leukemia, HL-60 CL-2: human cervix carcinoma, HeLa CL-3: human prostate carcinoma, PC-3 CL-4: human colon adenocarcinoma, Caco-2 CL-5: human breast adenocarcinoma, MCF-7

[8] = 20 nM EcParvulin, substrate Suc-Ala-Phe-Pro-Phe-pNA, chymotrypsin, pH 7.8, 6° C., read-out: IC50 class, Target T-5 (EcParv)

Chain of hCyp18 (P62937 whole entry): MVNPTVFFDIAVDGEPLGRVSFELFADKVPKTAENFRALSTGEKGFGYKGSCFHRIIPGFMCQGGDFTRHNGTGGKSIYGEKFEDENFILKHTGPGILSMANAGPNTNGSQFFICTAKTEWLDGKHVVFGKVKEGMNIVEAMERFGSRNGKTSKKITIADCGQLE

Compound | IC50 [1] | IC50 [2] | IC50 [3] | IC50 [4] | IC50 [5, 8] | IC50 [6] | IC50 [5] | EC50 at 48 h [7]
O=C(Nc1cc(Cl)c(O)c(Cl)c1)NC12CC3CC(CC(C3)C1)C2 [Compound 719] | 50 to 100 µM | < 1 µM | 10 to 50 µM | > 100 µM |  |  |  | 
Cc1c(Cl)cc(NC(=O)Nc2ccccc2)c(O)c1Cl [Compound 120] | 10 to 50 µM | 10 to 50 µM | > 100 µM | 50 to 100 µM |  |  |  | 
Oc1ccc(NCc2ccccc2Sc2ccc(Cl)cc2)c(O)c1 [Compound 672] | 1 to 10 µM |  | 10 to 50 µM |  |  |  |  | 
CC(C)(C)NC(=O)Nc1cc(NC(=O)NCCc2ccccc2)cc(Cl)c1O [Compound 622] |  | < 1 µM |  |  |  |  |  | 
Oc1c(Cl)cc(-c2nc3ccccc3s2)cc1NC(=S)NCc1ccccc1 [Compound 637] |  | 1 to 10 µM |  |  |  |  |  | 
Oc1c(Cl)cc(NC(=S)Nc2ccccc2C(F)(F)F)cc1Cl [Compound 894] | > 100 µM | < 1 µM | > 100 µM | > 100 µM | 1 to 10 µM |  |  | 
CCOC(=O)C(Cc1ccccc1)NC(=O)Nc1cc(Cl)c(C)c(Cl)c1O (centres unmarked) [Compound 593] |  | 1 to 10 µM |  |  |  |  |  | 
O=C(Cc1ccccc1[N+](=O)[O-])Nc1cc(Cl)c(O)c(Cl)c1 [Compound 1294] | > 100 µM | < 1 µM | > 100 µM | > 100 µM | 1 to 10 µM |  |  | 
Cc1c(Cl)cc(NC(=O)c2ccc(-c3ccccc3)cc2)c(O)c1Cl [Compound 644] |  |  |  |  |  | > 100 µM |  | 
CC(C)(C)CC(C)(C)NC(=O)Nc1cc(Br)cc(F)c1O [Compound 126] |  | < 1 µM |  |  |  |  |  | 
Cc1cccc(C)c1NC(=O)Nc1cc(Cl)c(O)c(Cl)c1 [Compound 716] | > 100 µM | 1 to 10 µM | > 100 µM | > 100 µM |  | > 100 µM | 10 to 50 µM | 
Oc1c(Cl)cc(Cl)cc1NCc1cccc(Oc2ccc(Cl)cc2)c1 [Compound 482] | 10 to 50 µM | 1 to 10 µM | > 100 µM | > 100 µM | > 100 µM |  |  | 
Cc1c(Cl)cc(NCc2cccc(Oc3ccc(Cl)cc3)c2)c(O)c1Cl [Compound 498] |  |  |  |  |  | > 100 µM |  | 
Oc1c(Cl)cc(Cl)cc1NCc1ccco1 [Compound 647] | > 100 µM | 1 to 10 µM | > 100 µM | > 100 µM | > 100 µM |  |  | 
Cc1c(Cl)cc(NCc2ccccc2Sc2ccc(Cl)cc2)c(O)c1Cl [Compound 371] | 10 to 50 µM | < 1 µM | > 100 µM | > 100 µM |  | > 100 µM | 10 to 50 µM | 
O=[N+]([O-])c1ccc(Sc2ccccc2CNc2ccc(F)c(F)c2O)cc1 [Compound 400] |  | < 1 µM |  |  |  |  |  | 
O=C(Cc1ccc2c(c1)OCO2)Nc1cc(Cl)c(O)c(Cl)c1 [Compound 1295] | > 100 µM | 1 to 10 µM | > 100 µM | > 100 µM | 1 to 10 µM |  |  | 
CCc1c(Cl)cc(NCc2ccccc2Sc2ccc(Cl)cc2)c(O)c1Cl [Compound 441] | 10 to 50 µM | 1 to 10 µM | > 100 µM | > 100 µM |  | > 100 µM | > 100 µM | 
O=C(Nc1cc(Cl)c(O)c(Cl)c1)c1ccc2ccccc2c1 [Compound 1297] | > 100 µM | < 1 µM | > 100 µM | > 100 µM | 10 to 50 µM |  |  | 50 to 100 µM
Cc1c(Cl)cc(NCc2c(F)cccc2Cl)c(O)c1Cl [Compound 512] | 50 to 100 µM | 10 to 50 µM | > 100 µM | > 100 µM | 10 to 50 µM |  |  | 
CC(C)(C)NC(=O)Nc1cc(NC(=O)NC2CCCCC2)cc(Cl)c1O [Compound 605] | 10 to 50 µM | < 1 µM | > 100 µM | > 100 µM | 1 to 10 µM |  |  | 

Compound | IC50 [1] | IC50 [2] | IC50 [3] | IC50 [4] | IC50 [5, 8] | IC50 [6] | IC50 [5] | EC50 at 48 h [7]
Cc1c(Cl)cc(NC(=O)NC23CC4CC(CC(C4)C2)C3)c(O)c1Cl [Compound 118] | 10 to 50 µM | 1 to 10 µM | 10 to 50 µM | 50 to 100 µM |  | > 100 µM | 1 to 10 µM | 
CC(C)(C)NC(=O)Nc1cc(Br)cc(F)c1O [Compound 127] |  | 1 to 10 µM |  |  |  |  |  | 
CC(C)(C)NC(=O)Nc1cc(Cl)cc(Cl)c1O [Compound 31] |  | < 1 µM |  |  |  |  |  | 
Oc1c(F)cc(Br)cc1NCc1ccccc1Sc1ccc(Cl)cc1 [Compound 385] |  |  |  |  |  | > 100 µM |  | 
CCCCCNC(=O)Nc1ccc(C)cc1O [Compound 643] | > 100 µM | 10 to 50 µM | > 100 µM | > 100 µM |  | > 100 µM | > 100 µM | 
O=C(Nc1cc(Cl)c(O)c(Cl)c1)c1ccccc1 [Compound 1298] | > 100 µM | < 1 µM | > 100 µM | > 100 µM | 10 to 50 µM |  |  | 
O=C(CCc1ccccc1)Nc1cc(Cl)c(O)c(Cl)c1 [Compound 1293] | > 100 µM | 1 to 10 µM | > 100 µM | > 100 µM | 10 to 50 µM |  |  | 
O=C(Nc1cc(Cl)c(O)c(Cl)c1)NC1CCCCC1 [Compound 710] | > 100 µM | < 1 µM | > 100 µM | > 100 µM |  | > 100 µM | > 100 µM | 
O=C(Nc1cc(Br)cc(F)c1O)NC12CC3CC(CC(C3)C1)C2 [Compound 142] |  | < 1 µM |  |  |  |  |  | 
Oc1c(Cl)cc(-c2nc3ccccc3s2)cc1NC(=S)NCCc1ccccc1 [Compound 638] |  | 1 to 10 µM |  |  |  |  |  | 
CCCCCCCCS(=O)(=O)Nc1cc(Cl)c(C)c(Cl)c1O [Compound 563] | > 100 µM | 1 to 10 µM | > 100 µM | > 100 µM |  | > 100 µM | > 100 µM | 
Cc1c(Cl)cc(NC(=S)NC(C)(C)CC(C)(C)C)c(O)c1Cl [Compound 257] |  | < 1 µM |  |  |  |  |  | 
CC(C)(C)NC(=O)Nc1cc(-c2nc3ccccc3s2)cc(Cl)c1O [Compound 636] |  | < 1 µM |  |  |  |  |  | 
O=C(NCc1ccccc1)Nc1cc(Cl)c(O)c(Cl)c1 [Compound 700] | > 100 µM | < 1 µM | > 100 µM | > 100 µM | 10 to 50 µM |  |  | 
O=C(NCCc1ccccc1)Nc1cc(Cl)c(O)c(NCc2ccccc2Sc2ccc(Cl)cc2)c1 [Compound 610] |  | < 1 µM |  |  |  |  |  | 
Cc1c(Cl)cc(NC(=O)NCCc2nc3ccccc3[nH]2)c(O)c1Cl [Compound 656] |  | < 1 µM |  |  |  |  |  | 
Cc1c(Cl)cc(NCc2ccccc2)c(O)c1Cl [Compound 655] | > 100 µM | 10 to 50 µM | > 100 µM | > 100 µM | 10 to 50 µM |  |  | 
Cc1c(Cl)cc(NCc2cccc(Oc3ccc(C(C)(C)C)cc3)c2)c(O)c1Cl [Compound 499] |  |  |  |  |  | > 100 µM |  | 
Oc1c(Cl)cccc1NCc1ccccc1Sc1ccc(Cl)cc1 [Compound 343] | 10 to 50 µM | 1 to 10 µM | > 100 µM | > 100 µM |  | > 100 µM | > 100 µM | 
O=C(Nc1cc(Cl)c(O)c(Cl)c1)c1ccco1 [Compound 1299] | < 1 µM | < 1 µM | > 100 µM | > 100 µM | 10 to 50 µM |  |  | 
Cc1c(Cl)cc(NC(=S)Nc2ccccc2C(F)(F)F)c(O)c1Cl [Compound 266] | > 100 µM | < 1 µM | > 100 µM | > 100 µM | 1 to 10 µM |  |  | 
